Assay results: publication PMC8767972 (Slas Discovery, 2022)

Experiments:
NL63 main protease = NL63 main protease (Human coronavirus NL63, UniProt P0C6X5); assay type: biochemical, NL63 CoV; conditions: read-out: NL63 IC50
HKU1 main protease = HKU1 main protease (Human coronavirus HKU1, UniProt P0C6X2); assay type: biochemical, HKU1 CoV; conditions: read-out: HKU1 IC50
Sequence of HKU1 main protease (P0C6X2 3335-3637 limits assumed): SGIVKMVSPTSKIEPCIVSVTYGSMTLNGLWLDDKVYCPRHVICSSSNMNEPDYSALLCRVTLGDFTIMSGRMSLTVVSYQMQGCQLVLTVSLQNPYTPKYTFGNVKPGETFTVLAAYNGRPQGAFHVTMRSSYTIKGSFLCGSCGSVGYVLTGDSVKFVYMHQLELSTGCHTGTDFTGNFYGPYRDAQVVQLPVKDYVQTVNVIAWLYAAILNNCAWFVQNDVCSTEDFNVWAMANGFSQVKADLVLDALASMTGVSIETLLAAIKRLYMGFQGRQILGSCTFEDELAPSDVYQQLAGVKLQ

Sequence of NL63 main protease (P0C6X5 2940-3242 limits assumed): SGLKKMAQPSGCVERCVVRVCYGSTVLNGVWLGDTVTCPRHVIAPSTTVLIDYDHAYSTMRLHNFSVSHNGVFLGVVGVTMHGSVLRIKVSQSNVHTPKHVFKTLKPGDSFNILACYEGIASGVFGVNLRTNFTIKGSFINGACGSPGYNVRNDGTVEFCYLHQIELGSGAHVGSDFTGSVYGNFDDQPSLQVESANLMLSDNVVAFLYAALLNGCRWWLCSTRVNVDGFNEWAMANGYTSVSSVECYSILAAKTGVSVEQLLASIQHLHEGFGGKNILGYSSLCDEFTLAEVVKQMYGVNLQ

SMILES: CC(C)C[C@H](NC(=O)OCc1ccccc1)C(=O)N[C@@H](CC1CCNC1=O)C(O)S(=O)(=O)O (some centres unmarked) [GC376]
- IC50 (NL63 main protease): 52 nM
- IC50 (HKU1 main protease): 12 nM
